{
  "source": "patent US12640251B2",
  "about": "“Methods of treating dementia associated with alzheimer's disease with protective protein/cathepsin A (PPCA)” (St. Jude Children's Research Hospital, priority 2011, dated 2026)",
  "key": {"[1]": {"test_system": "RH41^shNEU1 cells", "test": "DOXO dose response, apoptotic response (cleaved PARP immunoblot)", "type": "cell-based, human", "conditions": "compared with corresponding unmodified cells", "description": "(§1) Finally, we generated DOXO dose response curves in both parental cell lines and the modified lines to examine the differences in their apoptotic responses. Immunoblots of the cleaved poly (ADP-ribose) polymerase (PARP), a canonical apoptotic marker, were used for this purpose (data not shown).\n(§2) RH30 cells were transduced with the pBABE-puro retroviral vector (AddGene), either unmodified or containing the human NEU1 cDNA. Transduced cells were selected with puromycin (2 μg/mL), according to the predetermined sensitivity of the cell line, and were maintained in 0.5 μg/mL selection medium. RH41 cells were transfected with a panel of NEU1 shRNA plasmids (RHS4533-NM000434, Open Biosystems) or the accompanying empty vector control. The cells were selected with puromycin and maintained under selection medium."}, "[2]": {"test_system": "RH30^NEU1 cells", "test": "DOXO dose response, apoptotic response (cleaved PARP immunoblot)", "type": "cell-based, human", "conditions": "compared with unmodified controls", "description": "as §1, §2"}, "[3]": {"test_system": "RH41 cells", "test": "Doxorubicin exposure, apoptotic response (cleaved PARP immunoblot)", "type": "cell-based, human", "conditions": "parental RH41 cells, high NEU1"}, "[4]": {"test_system": "EW8 cells", "test": "DOXO response of Ewing sarcoma cell line", "type": "cell-based", "conditions": "high-NEU1 cells", "description": "(§3) We, therefore, characterized other tumor cell lines, in terms of their invasive potential and NEU1 status. We chose the Ewing sarcoma cell lines, EW8 and SKNEP1, for their divergent NEU1 levels. Similar to the RMS cell lines, the low-NEU1 SKNEP1 cells accumulated oversialylated LAMP1, were resistant to DOXO, and more successfully invaded matrigel and peritoneal basement membranes than did the high-NEU1 DOXO-sensitive EW8 cells (data not shown). We also analyzed the colon carcinoma cell lines, SW480 and SW620, because of their well-characterized derivation (Leibovitz et al., 1976): SW480 cells are from a primary colon carcinoma; SW620 cells are from a metastatic recurrence. […] This was also paralleled by a drastic increase in LAMP1 levels compared to that in SW480 (data not shown)."}, "[5]": {"test_system": "SKNEP1 cells", "test": "DOXO response of Ewing sarcoma cell line", "type": "cell-based", "conditions": "low-NEU1 cells", "description": "as §3"}, "[6]": {"test_system": "RH30 cells", "test": "Doxorubicin efflux assay", "type": "cell-based, human", "conditions": "3 μg/mL DOXO for 2 hours, then DOXO-free medium for 2 hours", "description": "Cells were plated and maintained at 50% confluency. The next day, they were treated with medium containing 3 μg/mL DOXO for 2 hours. Treated cells were then washed 3 times with PBS and cultured in DOXO-free medium for an additional 2 hours, to allow efflux of the drug into fresh medium. The conditioned medium was then centrifuged at 1000 rpm […] for 5 minutes and a 500 μL aliquot was spun through an ULTRAFREE-MC 0.1 μm Eppendorf centrifugal filter (Millipore) to capture the effluxed drug. The filter was then placed on a microscopic slide and images of the red fluorescence filter were taken on a Nikon Cl microscope."}},
  "note": "“Also recorded” adds a separate entry of the source.",
  "data": [
    {"smiles": "COc1cccc2c1C(=O)c1c(O)c3c(c(O)c1C2=O)C[C@@](O)(C(=O)CO)C[C@@H]3O[C@H]1C[C@H](N)[C@H](O)[C@H](C)O1", "note": "[doxorubicin]", "values": [
      {"measurement": "apoptotic response to DOXO", "setting": "[1]", "result": "more resistant to apoptosis"},
      {"measurement": "apoptotic response to DOXO", "setting": "[2]", "result": "more sensitive"},
      {"measurement": "response to doxorubicin (apoptosis)", "setting": "[3]", "result": "highly susceptible; also recorded: readily apoptosed"},
      {"measurement": "response to DOXO", "setting": "[4]", "result": "sensitive"},
      {"measurement": "response to DOXO", "setting": "[5]", "result": "resistant"},
      {"measurement": "efflux of DOXO into culture medium (red fluorescence)", "setting": "[6]", "result": "released from these cells"}
    ]}
  ]
}
